Measurements: patent publication US12403144B2, “HECT E3 ligase inhibitors and uses thereof” (IFOM FONDAZIONE ISTITUTO FIRC DI ONCOLOGIA MOLECOLARE, priority 2019, dated 2025)
Counter-ions that a name gives are not always drawn.

Target: T1, untagged HECT of NEDD4 wild-type (WT) (E3 ligase) (Homo sapiens, UniProt P46934)
T1 construct: untagged HECT of NEDD4 wild-type (WT) (E3 ligase); made in house
T1 sequence (P46934 519-900 isoform P46934-4 limits assumed): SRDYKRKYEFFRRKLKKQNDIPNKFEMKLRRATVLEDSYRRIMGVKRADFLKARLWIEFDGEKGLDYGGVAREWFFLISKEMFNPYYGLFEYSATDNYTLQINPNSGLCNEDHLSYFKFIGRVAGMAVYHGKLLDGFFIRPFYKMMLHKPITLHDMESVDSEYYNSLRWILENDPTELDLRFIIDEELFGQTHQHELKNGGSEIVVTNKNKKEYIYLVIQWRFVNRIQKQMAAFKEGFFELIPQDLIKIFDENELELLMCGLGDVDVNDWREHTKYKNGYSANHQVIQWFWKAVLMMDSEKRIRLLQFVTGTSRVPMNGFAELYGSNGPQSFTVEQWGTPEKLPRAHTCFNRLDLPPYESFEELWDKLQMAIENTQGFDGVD
Assay: In vitro ubiquitination assay TR-FRET based (self-ubiquitination of NEDD4)
Assay type: biochemical
Conditions: at 11 μM; pre-incubated for 1 hour; AUC of 120 minutes kinetic; read-out: percentages of inhibition (NEDD4)
Source text: FIG. 1: TR-FRET kinetic assay performed with compound 12. […] Reactions were initiated with the addition of ATP. As labeled ubiquitin molecules become incorporated into chains they come into close proximity, resulting in energy transfer and increased signal to background detection. The activity of the enzyme is continuously and real time detected and it is expressed as % of signal/background during the time.
In order to quantitatively measure the self-ubiquitination process of the E3 HECT ligase NEDD4 the inventors employed a TR-FRET based assay. TR-FRET technology exploits the long-lasting emission of lanthanide fluorescence to interpose a short time-delay between FRET donor excitation and emission. This phenomenon enables to isolate real fluorescent signals from short-lived background emissions, thus reducing possible interference from compounds.
In the present study, elongation of the ubiqutin chain by NEDD4 is measured by adding bacterially expressed E1, His-tagged UBE2D3 (E2) and untagged HECT of NEDD4 wild-type (WT) (E3 ligase) (named in FIG. 1 as WT) enzymes to a mixture of Eu-cryptate ubiquitin, Cy5-ubiquitin and wild-type ubiquitin, combined in a ratio optimized for TR-FRET based conjugation (100×TRF-Ubiquitin Mix, SBB-TR0051). […] Bacterially expressed E1, His-tagged UBE2D3 (E2), untagged HECT NEDD4 (E3 ligase) WT and NEDD4 C/A enzymes were produced and purified as reported in E. Maspero et al. Methods Mol Biol. 1449:153-60 (2016).
Enzymatic incorporation of the labeled TRF-Ubiquitin mix into chains leads to an increase in fluorescence emission at 665 nm (emission of the acceptor Cy5-Ubiquitin, Emacceptor) and decrease at emission wavelength 620 nm (emission of the donor Eu-cryptate Ubiquitin, Emdonor).
The assay was performed in a 384-well plate format (Optiplate, Perkin Elmer, #6007290) on an automated liquid-handler (Hamilton STAR, Hamilton Robotics, Switzerland).
All compounds were dissolved in 100% DMSO and serially diluted in 96-well plates (from 100 μM to 0.005 μM).
Briefly, all reagents were thawed and kept on ice. A master mix containing E1, E2, E3 and TRF-Ubiquitin Mix (SBB-TR0051) diluted in the assay buffer (Tris-HCl pH 7.6 25 mM, NaCl 100 mM, MgCl2 5 mM and Tween 0.01%) is prepared and 50 μl/well is dispensed in a 384 well plate. 3 μl of compounds dissolved in DMSO in the above-indicated concentration range were added and pre-incubated for 1 hour. Final E1, E2 and E3 concentrations in the assay buffer (Tris-HCl pH 7.6 25 mM, NaCl 100 mM, MgCl2 5 mM and Tween 0.01%) were 30, 350 and 50 nanomolars, respectively. The reaction was initiated with the addition of ATP (22 μl of 2 mM ATP, JenaBioscience, NU-1010) and was allowed to proceed for 120 minutes, measuring fluorescence emission at 665 nm and 620 nm in real-time on an EnSpire microplate reader (Perkin Elmer).
Kinetic raw data were analyzed by Area Under the Curve (AUC) method using Prism GraphPad software.
% signal/background corresponds to the following equation: (Experimental signal−Background signal)/Background signal×100%
Experimental signal corresponds to the signal obtained by the enzymatic reaction in presence of the vehicle (DMSO) and/or the different compound concentrations. Background signal corresponds to the signal obtained by the enzymatic reaction in absence of ATP.
The relative potency of the compounds was evaluated by dose-response curves following the enzymatic reaction of HECT NEDD4 WT in real time for 120 minutes.
Percentage of inhibition is then determined by the equation: % inhibition=100×[1−(X)/(MAX)],
where MAX correspond to AUC of the vehicle (DMSO) treated enzyme, and X corresponds to the AUC of the compound treated enzyme.

Question: For `COC(=O)/C=C/CN(C)CCCN1c2ccccc2CCc2ccc(Cl)cc21` [Compound 1, Methyl (E)-4-[3-(3-chloro-10,11-dihydro-5H-dibenzo[b,f]azepin-5-yl)propyl-methyl-amino]but-2-enoate hydrochloride], which inhibition at 11 µM is on record?
Answer: Its inhibition at 11 µM is 30 to 50%.

Question: `CCOC(=O)/C=C/CNCCCN1c2ccccc2COc2ccc(Cl)cc21` [Compound 2, Ethyl (E)-4-[3-(7-chlorodibenzo[b,e][1,4]oxazepin-5(11H)-yl)propylamino]but-2-enoate maleate] was tested. Which inhibition at 11 µM did it give?
Answer: The inhibition at 11 µM was > 50%.

Question: Which inhibition at 11 µM does the source give for `CCOC(=O)/C=C/CNCCCN1c2ccccc2COc2ccc(C(F)(F)F)cc21` [Compound 3, Ethyl (E)-4-{3-[7-(trifluoromethyl)dibenzo[b,e][1,4]oxazepin-5(11H)-yl]propylamino}but-2-enoate maleate] here?
Answer: Its inhibition at 11 µM is 30 to 50%.

Question: How did the inhibition at 11 µM turn out when `CCOC(=O)/C=C/CNCCCN1c2ccccc2CCc2ccc(Cl)cc21` [Compound 4, Ethyl (E)-4-[3-(3-chloro-10,11-dihydro-5H-dibenzo[b,f]azepin-5-yl)propylamino]but-2-enoate fumarate] was run?
Answer: Its inhibition at 11 µM is > 50%.

Question: How did the inhibition at 11 µM turn out when `CON(C)C(=O)/C=C/CN(C)CCCN1c2ccccc2CCc2ccc(Cl)cc21` [Compound 6, (E)-4-[3-(3-Chloro-10,11-dihydro-5H-dibenzo[b,f]azepin-5-yl)propyl-methyl-amino]-N-methoxy-N-methyl-but-2-enamide] was run?
Answer: The inhibition at 11 µM was > 50%.

Question: Which inhibition at 11 µM does the source give for `CC(=O)/C=C/CN(C)CCCN1c2ccccc2CCc2ccc(Cl)cc21` [Compound 7, (E)-5-[3-(3-chloro-10,11-dihydro-5H-dibenzo[b,f]azepin-5-yl)propyl-methyl-amino]pent-3-en-2-one maleate] here?
Answer: Its inhibition at 11 µM is > 50%.

Question: With `CN(C/C=C/C(=O)c1ccccc1)CCCN1c2ccccc2CCc2ccc(Cl)cc21` [Compound 8, (E)-4-[3-(3-chloro-10,11-dihydro-5H-dibenzo[b,f]azepin-5-yl)propyl-methyl-amino]-1-phenyl-but-2-en-1-one] as the molecule, how does the inhibition at 11 µM read?
Answer: Its inhibition at 11 µM is > 50%.

Question: With `CC(=O)/C=C/CN(C)CCCCN1c2ccccc2CCc2ccc(Cl)cc21` [Compound 10, (E)-5-[4-(3-chloro-10,11-dihydro-5H-dibenzo[b,f]azepin-5-yl)butyl-methyl-amino]pent-3-en-2-one maleate] as the molecule, how does the inhibition at 11 µM read?
Answer: Its inhibition at 11 µM is > 50%.

Question: `CCOC(=O)/C=C/CNCCCN1c2ccccc2CCc2ccccc21` [Compound 11, Ethyl (E)-4-[3-(10,11-dihydro-5H-dibenzo[b,f]azepin-5-yl)propylamino]but-2-enoate fumarate] was tested. Which inhibition at 11 µM did it give?
Answer: Its inhibition at 11 µM is 30 to 50%.

Question: Which inhibition at 11 µM does the source give for `CCOC(=O)/C=C/CNCCCCCN1c2ccccc2CCc2ccc(Cl)cc21` [Compound 13, Ethyl (E)-4-[5-(3-chloro-10,11-dihydro-5H-dibenzo[b,f]azepin-5-yl)pentylamino]but-2-enoate maleate] here?
Answer: The inhibition at 11 µM was > 50%.

Question: `CCOC(=O)/C=C/CNCCCN1c2ccccc2CCc2ccc([N+](=O)[O-])cc21` [Compound 14, Ethyl (E)-4-[3-(3-nitro-10,11-dihydro-5H-dibenzo[b,f]azepin-5-yl)propylamino]but-2-enoate maleate] was tested. Which inhibition at 11 µM did it give?
Answer: Its inhibition at 11 µM is > 50%.

Question: How did the inhibition at 11 µM turn out when `CCOC(=O)/C=C/CNCCCN1c2ccccc2CCc2ccc(Br)cc21` [Compound 15, Ethyl (E)-4-[3-(3-bromo-10,11-dihydro-5H-dibenzo[b,f]azepin-5-yl)propylamino]but-2-enoate maleate] was run?
Answer: Its inhibition at 11 µM is > 50%.

Question: Which inhibition at 11 µM does the source give for `O=C(O)/C=C/CNCCCN1c2ccccc2CCc2ccc(Cl)cc21` [Compound 16, (E)-4-[3-(3-chloro-10,11-dihydro-5H-dibenzo[b,f]azepin-5-yl)propylamino]but-2-enoic acid 2,2,2-trifluoroacetate] here?
Answer: The inhibition at 11 µM was < 30%.

Question: For `O=C(O)/C=C/CNCCCCN1c2ccccc2CCc2ccc(Cl)cc21` [Compound 17, (E)-4-[4-(3-chloro-10,11-dihydro-5H-dibenzo[b,f]azepin-5-yl)butylamino]but-2-enoic acid 2,2,2-trifluoroacetate], which inhibition at 11 µM is on record?
Answer: The inhibition at 11 µM was < 30%.

Question: With `NC(=O)/C=C/CNCCCN1c2ccccc2CCc2ccc(Cl)cc21` [Compound 18, (E)-4-{[3-(3-chloro-10,11-dihydro-5H-dibenzo[b,f]azepin-5-yl)propyl]amino}but-2-enamide hydrochloride] as the molecule, how does the inhibition at 11 µM read?
Answer: The inhibition at 11 µM was < 30%.

Question: For `CNC(=O)/C=C/CNCCCN1c2ccccc2CCc2ccc(Cl)cc21` [Compound 19, (E)-4-{[3-(3-chloro-10,11-dihydro-5H-dibenzo[b,f]azepin-5-yl)propyl]amino}-N-methyl-but-2-enamide hydrochloride], which inhibition at 11 µM is on record?
Answer: The inhibition at 11 µM was < 30%.

Question: How did the inhibition at 11 µM turn out when `CN(C)C(=O)/C=C/CNCCCN1c2ccccc2CCc2ccc(Cl)cc21` [Compound 20, (E)-4-{[3-(3-chloro-10,11-dihydro-5H-dibenzo[b,f]azepin-5-yl)propyl]amino}-N,N-dimethyl-but-2-enamide hydrochloride] was run?
Answer: Its inhibition at 11 µM is < 30%.

Question: For `O=C(/C=C/CNCCCN1c2ccccc2CCc2ccc(Cl)cc21)Nc1ccccc1` [Compound 21, (E)-4-{[3-(3-chloro-10,11-dihydro-5H-dibenzo[b,f]azepin-5-yl)propyl]amino}-N-phenyl-but-2-enamide hydrochloride], which inhibition at 11 µM is on record?
Answer: Its inhibition at 11 µM is < 30%.

Question: For `N#C/C=C/CNCCCN1c2ccccc2CCc2ccc(Cl)cc21` [Compound 22, (E)-4-{[3-(3-chloro-10,11-dihydro-5H-dibenzo[b,f]azepin-5-yl)propyl]amino}but-2-enenitrile hydrochloride], which inhibition at 11 µM is on record?
Answer: The inhibition at 11 µM was > 50%.

Question: For `CCOC(=O)/C=C/CNCCCN1c2ccccc2NC(=O)c2ccc(Cl)cc21` [Compound 23, Ethyl (E)-4-{[3-(3-chloro-11-oxo-10,11-dihydro-5H-dibenzo[b,e][1,4]diazepin-5-yl)propyl]amino}but-2-enoate maleate], which inhibition at 11 µM is on record?
Answer: The inhibition at 11 µM was 30 to 50%.

Question: `CCOC(=O)/C=C/CNCCCCN1c2ccccc2NC(=O)c2ccc(Cl)cc21` [Compound 24, Ethyl (E)-4-{[4-(3-chloro-11-oxo-10,11-dihydro-5H-dibenzo[b,e][1,4]diazepin-5-yl)butyl]amino}but-2-enoate maleate] was tested. Which inhibition at 11 µM did it give?
Answer: The inhibition at 11 µM was > 50%.

Question: How did the inhibition at 11 µM turn out when `CCOC(=O)/C=C/CNCCCN1c2ccccc2NC(=O)c2ccc(C(F)(F)F)cc21` [Compound 25, Ethyl (E)-4-{[3-(11-oxo-3-(trifluoromethyl)-10,11-dihydro-5H-dibenzo[b,e][1,4]diazepin-5-yl)propyl]amino}but-2-enoate maleate] was run?
Answer: Its inhibition at 11 µM is < 30%.

Question: For `CCOC(=O)/C=C/CNCCCN1c2cc(Cl)ccc2NC(=O)c2ccccc21` [Compound 26, Ethyl (E)-4-{[3-(7-chloro-11-oxo-10,11-dihydro-5H-dibenzo[b,e][1,4]diazepin-5-yl)propyl]amino}but-2-enoate maleate], which inhibition at 11 µM is on record?
Answer: Its inhibition at 11 µM is > 50%.

Question: `CCOC(=O)/C=C/CNCCCN1c2cc(Cl)ccc2C(=O)N(C)c2ccccc21` [Compound 27, Ethyl (E)-4-{[3-(3-chloro-10-methyl-11-oxo-10,11-dihydro-5H-dibenzo[b,e][1,4]diazepin-5-yl)propyl]amino}but-2-enoate maleate] was tested. Which inhibition at 11 µM did it give?
Answer: Its inhibition at 11 µM is > 50%.
